The record followed here is ChEMBL document CHEMBL4387741, “Optimization of novel reversible Bruton's tyrosine kinase inhibitors identified using Tethering-fragment-based screens” (Bioorg Med Chem, 2019).

Experiment [1] deals with LIM domain kinase 2 (Homo sapiens) (UniProt P53671). Kind of experiment: Inhibition of wild-type human full length LIMK2 (M1 to P638 residues) expressed in bacterial expression system at 10 uM by Kinomescan method relative to control.
Experiment [2] has as its target Glycogen synthase kinase-3 alpha (Homo sapiens) (UniProt P49840). The experiment in a line: Inhibition of wild-type human full length GSK3A (M1 to S483 residues) expressed in bacterial expression system at 10 uM by Kinomescan method relative to control.
The target in experiment [3] is Protein kinase C iota type (Homo sapiens) (UniProt P41743). Kind of experiment: Inhibition of wild-type human partial length PRKCI (H215 to V587 residues) expressed in mammalian expression system at 10 uM by Kinomescan method relative to control.
Chain of Protein kinase C iota type (Homo sapiens) (P41743 whole entry, the tested form may be a part): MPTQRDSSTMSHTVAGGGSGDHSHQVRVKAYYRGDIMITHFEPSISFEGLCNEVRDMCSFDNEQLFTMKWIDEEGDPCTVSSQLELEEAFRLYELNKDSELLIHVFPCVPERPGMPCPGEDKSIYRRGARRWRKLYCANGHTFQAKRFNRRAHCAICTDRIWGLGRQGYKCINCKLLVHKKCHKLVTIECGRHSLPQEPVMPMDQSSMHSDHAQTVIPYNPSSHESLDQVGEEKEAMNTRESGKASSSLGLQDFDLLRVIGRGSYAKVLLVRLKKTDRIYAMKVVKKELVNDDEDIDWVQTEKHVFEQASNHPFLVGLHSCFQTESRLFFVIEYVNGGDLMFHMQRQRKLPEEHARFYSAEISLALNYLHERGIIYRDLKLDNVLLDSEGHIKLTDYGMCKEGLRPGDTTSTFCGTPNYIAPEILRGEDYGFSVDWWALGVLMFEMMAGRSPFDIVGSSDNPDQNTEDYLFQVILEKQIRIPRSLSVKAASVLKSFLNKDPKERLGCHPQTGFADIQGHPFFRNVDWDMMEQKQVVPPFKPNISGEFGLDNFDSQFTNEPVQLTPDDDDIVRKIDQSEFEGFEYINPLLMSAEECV
The target in experiment [4] is Serine/threonine-protein kinase 33 (Homo sapiens) (UniProt Q9BYT3). The experiment in a line: Inhibition of wild-type human full length STK33 (M1 to L514 residues) expressed in bacterial expression system at 10 uM by Kinomescan method relative to control.
Chain of Serine/threonine-protein kinase 33 (Homo sapiens) (Q9BYT3 whole entry, looked up, the tested form may be a part): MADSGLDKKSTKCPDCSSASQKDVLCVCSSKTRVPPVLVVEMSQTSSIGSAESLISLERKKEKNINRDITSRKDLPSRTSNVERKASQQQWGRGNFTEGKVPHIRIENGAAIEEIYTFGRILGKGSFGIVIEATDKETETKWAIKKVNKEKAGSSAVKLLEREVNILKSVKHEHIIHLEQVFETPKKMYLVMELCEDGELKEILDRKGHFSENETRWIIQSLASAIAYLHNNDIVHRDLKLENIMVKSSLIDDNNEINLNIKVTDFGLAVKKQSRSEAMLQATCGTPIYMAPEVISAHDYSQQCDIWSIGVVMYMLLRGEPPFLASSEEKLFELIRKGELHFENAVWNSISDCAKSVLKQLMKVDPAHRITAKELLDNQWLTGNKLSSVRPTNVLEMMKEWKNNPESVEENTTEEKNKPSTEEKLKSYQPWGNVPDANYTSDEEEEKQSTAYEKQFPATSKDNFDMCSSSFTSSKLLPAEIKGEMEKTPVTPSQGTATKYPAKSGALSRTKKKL
Experiment [5] addresses Serine/threonine-protein kinase pim-2 (Homo sapiens) (UniProt Q9P1W9). The experiment in a line: Inhibition of wild-type human partial length PIM2 (M1 to E291 residues) expressed in bacterial expression system at 10 uM by Kinomescan method relative to control.
The target of experiment [6] is Inhibitor of nuclear factor kappa-B kinase subunit alpha (Homo sapiens) (UniProt O15111). Kind of experiment: Inhibition of wild-type human full length IKK-alpha (M1 to E745 residues) expressed in mammalian expression system at 10 uM by Kinomescan method relative to control.
For experiment [7], the target named is Dual specificity mitogen-activated protein kinase kinase 1 (Homo sapiens) (UniProt Q02750). Kind of experiment: Inhibition of wild-type human full length MEK1 (M1 to V393 residues) expressed in mammalian expression system at 10 uM by Kinomescan method relative to control.
Experiment [8] deals with Wee1-like protein kinase (Homo sapiens) (UniProt P30291). The experiment in a line: Inhibition of wild-type human partial length WEE1 (M291 to K575 residues) expressed in bacterial expression system at 10 uM by Kinomescan method relative to control.
Chain of Wee1-like protein kinase (Homo sapiens) (P30291 whole entry, looked up, the tested form may be a part): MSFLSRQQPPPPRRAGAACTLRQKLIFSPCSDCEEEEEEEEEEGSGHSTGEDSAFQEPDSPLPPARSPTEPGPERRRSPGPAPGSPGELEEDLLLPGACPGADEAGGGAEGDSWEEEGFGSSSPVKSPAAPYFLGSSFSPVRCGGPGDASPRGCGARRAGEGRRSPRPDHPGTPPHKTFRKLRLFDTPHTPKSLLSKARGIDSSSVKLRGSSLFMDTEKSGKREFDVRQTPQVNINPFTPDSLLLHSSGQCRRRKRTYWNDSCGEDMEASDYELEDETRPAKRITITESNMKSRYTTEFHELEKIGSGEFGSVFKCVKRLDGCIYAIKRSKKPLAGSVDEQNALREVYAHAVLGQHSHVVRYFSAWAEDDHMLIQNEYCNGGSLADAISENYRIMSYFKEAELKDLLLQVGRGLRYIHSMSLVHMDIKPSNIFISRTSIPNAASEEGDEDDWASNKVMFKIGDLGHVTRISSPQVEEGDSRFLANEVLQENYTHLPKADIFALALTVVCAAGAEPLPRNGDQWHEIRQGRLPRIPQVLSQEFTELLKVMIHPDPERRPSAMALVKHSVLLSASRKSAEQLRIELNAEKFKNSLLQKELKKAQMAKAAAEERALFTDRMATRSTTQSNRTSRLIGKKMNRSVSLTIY
In experiment [9] the target is Receptor-interacting serine/threonine-protein kinase 4 (Homo sapiens) (UniProt P57078). Kind of experiment: Inhibition of wild-type human partial length RIPK4 (M1 to V303 residues) expressed in mammalian expression system at 10 uM by Kinomescan method relative to control.
Chain of Receptor-interacting serine/threonine-protein kinase 4 (Homo sapiens) (P57078 whole entry, the tested form may be a part): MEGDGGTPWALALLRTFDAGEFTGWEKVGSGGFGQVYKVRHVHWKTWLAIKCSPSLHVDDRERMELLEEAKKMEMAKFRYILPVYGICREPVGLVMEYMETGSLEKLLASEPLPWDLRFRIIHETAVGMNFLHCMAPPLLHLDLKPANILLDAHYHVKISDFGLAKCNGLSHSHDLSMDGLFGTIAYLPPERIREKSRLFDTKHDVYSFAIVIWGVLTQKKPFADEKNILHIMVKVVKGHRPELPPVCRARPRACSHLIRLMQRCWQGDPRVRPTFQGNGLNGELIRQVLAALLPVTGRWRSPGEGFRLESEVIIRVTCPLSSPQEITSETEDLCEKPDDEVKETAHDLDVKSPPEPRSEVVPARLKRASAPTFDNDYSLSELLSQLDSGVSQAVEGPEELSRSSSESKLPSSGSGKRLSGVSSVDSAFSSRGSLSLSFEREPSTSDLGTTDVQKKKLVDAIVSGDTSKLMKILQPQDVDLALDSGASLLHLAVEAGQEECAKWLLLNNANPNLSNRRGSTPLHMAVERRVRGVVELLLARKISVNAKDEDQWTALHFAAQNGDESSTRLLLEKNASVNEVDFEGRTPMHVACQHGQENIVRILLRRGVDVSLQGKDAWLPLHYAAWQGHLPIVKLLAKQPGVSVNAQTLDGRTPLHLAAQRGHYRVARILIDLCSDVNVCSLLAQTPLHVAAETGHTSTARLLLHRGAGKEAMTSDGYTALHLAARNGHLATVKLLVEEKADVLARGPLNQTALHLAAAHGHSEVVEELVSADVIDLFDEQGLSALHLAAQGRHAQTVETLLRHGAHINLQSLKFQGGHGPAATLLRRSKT
The target of experiment [10] is TGF-beta receptor type-1 (Homo sapiens) (UniProt P36897). Kind of experiment: Inhibition of wild-type human partial length TGFBR1 (D179 to M503 residues) expressed in bacterial expression system at 10 uM by Kinomescan method relative to control.
Chain of TGF-beta receptor type-1 (Homo sapiens) (P36897 whole entry, the tested form may be a part): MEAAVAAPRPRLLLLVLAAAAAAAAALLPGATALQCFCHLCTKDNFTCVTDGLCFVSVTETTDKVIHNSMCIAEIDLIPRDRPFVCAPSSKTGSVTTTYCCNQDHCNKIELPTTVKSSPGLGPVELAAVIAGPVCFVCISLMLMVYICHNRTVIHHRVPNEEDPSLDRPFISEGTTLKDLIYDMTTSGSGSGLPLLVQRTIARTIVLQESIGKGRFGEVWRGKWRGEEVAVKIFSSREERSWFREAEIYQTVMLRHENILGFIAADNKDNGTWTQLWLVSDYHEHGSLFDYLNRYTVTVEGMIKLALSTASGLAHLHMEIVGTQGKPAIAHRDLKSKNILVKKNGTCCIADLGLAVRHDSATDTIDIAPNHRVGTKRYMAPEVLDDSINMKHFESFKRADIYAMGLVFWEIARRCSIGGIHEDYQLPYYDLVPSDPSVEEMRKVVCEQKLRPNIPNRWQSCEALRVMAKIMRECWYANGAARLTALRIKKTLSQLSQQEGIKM
In experiment [11] the target is Ephrin type-B receptor 6 (Homo sapiens) (UniProt O15197). The experiment in a line: Inhibition of wild-type human partial length EPHB6 (Q634 to P948 residues) expressed in mammalian expression system at 1 uM by Kinomescan method relative to control.
Chain of Ephrin type-B receptor 6 (Homo sapiens) (O15197 whole entry, the tested form may be a part): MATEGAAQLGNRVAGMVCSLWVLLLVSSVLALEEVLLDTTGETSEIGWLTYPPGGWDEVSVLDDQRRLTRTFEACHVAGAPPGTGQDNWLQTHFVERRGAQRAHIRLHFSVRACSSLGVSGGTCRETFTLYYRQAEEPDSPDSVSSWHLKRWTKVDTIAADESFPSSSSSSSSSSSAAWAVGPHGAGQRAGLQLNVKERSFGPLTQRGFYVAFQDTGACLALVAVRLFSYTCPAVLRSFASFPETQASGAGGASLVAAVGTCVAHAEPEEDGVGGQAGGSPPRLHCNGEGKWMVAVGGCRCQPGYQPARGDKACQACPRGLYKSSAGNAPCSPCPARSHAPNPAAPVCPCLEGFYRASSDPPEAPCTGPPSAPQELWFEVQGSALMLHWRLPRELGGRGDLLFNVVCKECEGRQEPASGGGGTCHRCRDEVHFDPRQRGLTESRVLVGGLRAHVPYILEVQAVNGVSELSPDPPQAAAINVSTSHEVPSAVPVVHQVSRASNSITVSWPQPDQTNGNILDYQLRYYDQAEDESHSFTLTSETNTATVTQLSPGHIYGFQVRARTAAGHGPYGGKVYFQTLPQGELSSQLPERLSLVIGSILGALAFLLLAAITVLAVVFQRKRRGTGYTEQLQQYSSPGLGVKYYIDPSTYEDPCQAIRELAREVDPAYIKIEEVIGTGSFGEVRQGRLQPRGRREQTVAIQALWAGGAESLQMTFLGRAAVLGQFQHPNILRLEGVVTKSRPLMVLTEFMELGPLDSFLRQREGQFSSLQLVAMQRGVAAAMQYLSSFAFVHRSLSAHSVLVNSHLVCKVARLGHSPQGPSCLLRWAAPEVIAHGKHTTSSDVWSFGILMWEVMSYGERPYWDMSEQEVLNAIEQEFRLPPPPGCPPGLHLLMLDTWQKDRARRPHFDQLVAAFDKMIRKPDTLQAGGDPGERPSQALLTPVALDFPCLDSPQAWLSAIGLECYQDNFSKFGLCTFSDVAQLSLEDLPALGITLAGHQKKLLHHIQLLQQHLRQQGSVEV
The test system of experiment [12] is Receptor-type tyrosine-protein kinase FLT3 (Homo sapiens), P36888 [UNDEFINED MUTATION]. The experiment in a line: Inhibition of human partial length FLT3 ITD mutant expressed in bacterial expression system at 1 uM by Kinomescan method relative to control.
Experiment [13] concerns Tyrosine-protein kinase ABL1 (Homo sapiens), P00519 [M351T]. Kind of experiment: Inhibition of human phosphorylated ABL1 M351T mutant (S229 to K512 residues) expressed in mammalian expression system at 1 uM by Kinomescan method relative to control.
Experiment [14] deals with Tyrosine-protein kinase TXK (Homo sapiens) (UniProt P42681). Kind of experiment: Inhibition of wild-type human partial length TXK (L238 to W527 residues) expressed in bacterial expression system at 1 uM by Kinomescan method relative to control.

Chain of Glycogen synthase kinase-3 alpha (Homo sapiens) (P49840 2-483 limits assumed): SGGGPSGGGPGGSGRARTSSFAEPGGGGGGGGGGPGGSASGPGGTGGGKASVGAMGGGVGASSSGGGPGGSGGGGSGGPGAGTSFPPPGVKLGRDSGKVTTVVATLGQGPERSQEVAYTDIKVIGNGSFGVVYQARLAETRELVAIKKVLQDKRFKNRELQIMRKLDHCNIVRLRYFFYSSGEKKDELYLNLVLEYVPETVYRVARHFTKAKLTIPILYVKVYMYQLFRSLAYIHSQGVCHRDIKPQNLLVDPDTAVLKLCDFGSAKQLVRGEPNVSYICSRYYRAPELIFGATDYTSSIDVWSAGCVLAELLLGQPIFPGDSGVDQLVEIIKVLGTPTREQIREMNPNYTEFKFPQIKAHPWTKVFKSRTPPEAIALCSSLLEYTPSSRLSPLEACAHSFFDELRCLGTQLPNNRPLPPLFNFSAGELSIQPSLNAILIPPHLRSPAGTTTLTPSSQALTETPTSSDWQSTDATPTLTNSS
Chain of Serine/threonine-protein kinase pim-2 (Homo sapiens) (Q9P1W9 whole entry, looked up, the tested form may be a part): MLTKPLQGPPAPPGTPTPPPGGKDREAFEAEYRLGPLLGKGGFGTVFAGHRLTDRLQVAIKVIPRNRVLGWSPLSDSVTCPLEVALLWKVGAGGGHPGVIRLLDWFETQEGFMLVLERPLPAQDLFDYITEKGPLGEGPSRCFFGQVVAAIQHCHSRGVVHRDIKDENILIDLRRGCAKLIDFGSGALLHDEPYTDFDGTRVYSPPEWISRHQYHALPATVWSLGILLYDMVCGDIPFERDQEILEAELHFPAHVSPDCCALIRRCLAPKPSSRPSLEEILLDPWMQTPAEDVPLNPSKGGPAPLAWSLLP

For `O=C(Nc1cccc([C@H]2CCCN(c3ncnc4[nH]ccc34)C2)c1)Nc1ccccc1N1CCCC1`, the inhibition (commonly the change of the read-out against control, counted positive when it falls) in experiment [1] was 100%; in experiment [2] it was 100%; in [3], 51%; in experiment [4] it was 100%; in [5], 100%; in experiment [6], 27%. The inhibition in experiment [7] was 14%; in experiment [8] it was 100%; in experiment [9], 71%; in experiment [10], 96%.
In the case of `O=C(Nc1cccc([C@@H]2CN(c3ncnc4[nH]ccc34)CCN2CCO)c1)Nc1c(F)cccc1N1CCCC1`, the inhibition came to 100% in experiment [11], 8.7% in [12], 90% in [13] and 63% in [14].
